Data published in patent publication US5610174A, “Use of α1A -selective adrenoceptor agonists for the treatment of urinary incontinence” (priority 1995, dated 1997).

Key:
[1] = target: T1, human histamine H1 receptor (Homo sapiens, UniProt P35367); experiment: Radioligand binding at cloned human histamine H1; settings: [3H]mepyramine; for Ki: read-out: pKi H1 (converted)
T1 construct: expressed in transfected cells; host or cells: COS-7 (plasmid pcEXV-H1, ATCC 75346)
Experimental: Human Histamine H1 Receptor
The coding sequence of the human histamine H1 receptor, homologous to the bovine H1 receptor, was obtained from a human hippocampal cDNA library, and was cloned into the eukaryotic expression vector pCEXV-3. The plasmid DNA for the H1 receptor is designated pcEXV-H1, and was deposited on Nov. 6, 1992 under ATCC Accession No. 75346. This construct was transfected into COS-7 cells by the DEAE-dextran method. Cells were harvested after 72 hours and lysed by sonication in 5 mM Tris-HCl, 5 mM EDTA, pH 7.5. The cell lysates were centrifuged at 1000 rpm for 5 min at 4° C., and the supernatant was centrifuged at 30,000×g for 20 min. at 4° C. The pellet was suspended in 37.8 mM NaHPO4, 12.2 mM KH2 PO4, pH 7.5. […]. The bound radioligand was separated by filtration through GF/B filters using a cell harvester.

[2] = target: T2, human dopamine D2 receptor (Homo sapiens, UniProt P14416); experiment: Radioligand binding at human dopamine D2; settings: [3H]spiperone; for Ki: read-out: pKi D2 (converted)
T2 construct: expressed in transfected cells; host or cells: COS-7 (plasmid pcEXV-D2, ATCC 75344)
T2 sequence (P14416 whole entry): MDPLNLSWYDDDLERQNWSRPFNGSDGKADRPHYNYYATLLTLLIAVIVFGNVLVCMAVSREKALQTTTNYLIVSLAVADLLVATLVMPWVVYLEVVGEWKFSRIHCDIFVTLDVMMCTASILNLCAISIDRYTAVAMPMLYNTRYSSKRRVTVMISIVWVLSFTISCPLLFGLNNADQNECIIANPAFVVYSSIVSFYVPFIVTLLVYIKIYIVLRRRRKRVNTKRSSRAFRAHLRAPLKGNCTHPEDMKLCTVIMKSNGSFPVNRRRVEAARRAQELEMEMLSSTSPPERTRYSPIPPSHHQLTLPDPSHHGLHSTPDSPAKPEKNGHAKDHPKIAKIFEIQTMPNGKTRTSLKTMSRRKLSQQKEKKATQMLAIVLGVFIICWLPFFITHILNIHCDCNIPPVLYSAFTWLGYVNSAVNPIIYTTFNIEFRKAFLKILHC
Experimental: Human Dopamine D2 Receptors
The affinity of compounds at the D2 receptor were determined using membrane preparations from COS-7 cells transfected with the gene encoding the human D2 receptor. The coding region for the human D2 receptor was obtained from a human striatum cDNA library, and cloned into the cloning site of PCDNA 1 eukariotic expression vector. The plasmid DNA for the D2 receptor is designated pcEXV-D2, and was deposited on Nov. 6, 1992 under ATCC Accession No. 75344. This construct was transfected into COS-7 cells by the DEAE-dextran method. Cells were harvested after 72 hours and lysed by sonication in 5mM Tris-HCl, 5 mM EDTA, pH 7.5. The cell lysates were centrifuged at 1000 rpm for 5 minutes at 4° C., and the supernatant was centrifuged at 30,000×g for 20 minutes at 4° C. The pellet was suspended in 50 mM Tris-HCl (pH 7.4) containing 1 mM EDTA, 5 mM KCl, 1.5 mM CaCl2, 4 mM MgCl2, and 0.1% ascorbic acid. The cell lysates were incubated with [3H]spiperone (2 nM), using 10 μM (+)Butaclamol to determine nonspecific binding.

[3] = target: T3, rabbit urethra, female (α1-adrenoceptor) (Oryctolagus cuniculus, UniProt O02824); experiment: Contractile study in isolated female rabbit urethra; settings: versus phenylephrine-induced contraction; read-out: pKB Rabbit Urethra Female (converted)
T3 construct: proximal urethra of male humans and male and female rabbits; from tissue; host or cells: rabbit proximal urethra strips, male or female
T3 sequence (O02824 1-466): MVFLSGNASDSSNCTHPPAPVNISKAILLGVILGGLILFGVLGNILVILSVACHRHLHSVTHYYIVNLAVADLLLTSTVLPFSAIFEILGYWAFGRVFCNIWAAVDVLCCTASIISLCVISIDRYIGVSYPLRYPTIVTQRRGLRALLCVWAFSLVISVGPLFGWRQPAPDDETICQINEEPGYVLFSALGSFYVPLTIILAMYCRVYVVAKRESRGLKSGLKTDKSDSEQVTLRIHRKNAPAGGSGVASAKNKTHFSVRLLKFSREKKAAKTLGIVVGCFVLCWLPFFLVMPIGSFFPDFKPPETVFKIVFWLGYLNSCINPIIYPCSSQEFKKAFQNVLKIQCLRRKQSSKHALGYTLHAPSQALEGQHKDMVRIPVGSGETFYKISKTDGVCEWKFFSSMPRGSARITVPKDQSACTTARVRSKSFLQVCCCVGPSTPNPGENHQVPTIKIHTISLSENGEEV
Description: (§1) In addition, similar studies were done using bladder neck tissue from female dogs. In order to identify the specific receptor subtype in each tissue, the pharmacological profile was compared to the profiles for these same drugs at the cloned human α1A, α1B, or α1C subtypes.
(§2) Tissue samples from the proximal urethra of male humans and male and female rabbits, as well as tissue samples from both the proximal urethra and bladder neck of male and female dogs were cut into transverse strips (3×10 mm) and suspended under 0.5 g tension in Krebs' physiological buffer at 37° C. To determine agonist potency (pEC50 )and antagonist affinity constants (pKB), concentration-effect curves to the non-selective agonist phenylepherine were constructed in the absence and in the presence of increasing concentrations of the antagonist. Up to four sequential curves were constructed in each tissue. Antagonists were allowed to equilibrate for 1h before each concentration-effect curve, and the drugs were completely washed out in between successive curves. In each experiment, one tissue served as a "time control", in which no antagonist was added so that changes in tissue sensitivity could be assessed as a function of time. […] In instances in which a single concentration of antagonist was used, pKB values were determined by the equation: […], where CR is defined as the ratio of the agonist EC50 in the presence of the antagonist to that in the absence of the antagonist.

[4] = target: T4, dog BN, male (α1-adrenoceptor) (Canis lupus, UniProt A0A8I3NK63); experiment: Contractile study in isolated male dog bladder neck; settings: versus phenylephrine-induced contraction
T4 sequence (A0A8I3NK63 1-466): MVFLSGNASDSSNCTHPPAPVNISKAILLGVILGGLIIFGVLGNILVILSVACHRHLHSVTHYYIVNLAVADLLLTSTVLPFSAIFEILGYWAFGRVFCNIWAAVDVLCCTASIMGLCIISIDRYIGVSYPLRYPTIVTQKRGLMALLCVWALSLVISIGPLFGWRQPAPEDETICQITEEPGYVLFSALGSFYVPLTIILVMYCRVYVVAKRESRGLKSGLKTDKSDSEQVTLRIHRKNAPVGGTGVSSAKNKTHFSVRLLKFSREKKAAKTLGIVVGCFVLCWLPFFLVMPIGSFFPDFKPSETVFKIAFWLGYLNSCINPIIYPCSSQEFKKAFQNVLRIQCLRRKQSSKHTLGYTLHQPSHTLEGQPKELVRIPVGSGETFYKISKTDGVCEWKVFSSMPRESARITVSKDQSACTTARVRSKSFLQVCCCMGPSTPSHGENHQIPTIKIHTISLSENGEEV
Description: as §1, §2

T1 sequence (P35367 whole entry): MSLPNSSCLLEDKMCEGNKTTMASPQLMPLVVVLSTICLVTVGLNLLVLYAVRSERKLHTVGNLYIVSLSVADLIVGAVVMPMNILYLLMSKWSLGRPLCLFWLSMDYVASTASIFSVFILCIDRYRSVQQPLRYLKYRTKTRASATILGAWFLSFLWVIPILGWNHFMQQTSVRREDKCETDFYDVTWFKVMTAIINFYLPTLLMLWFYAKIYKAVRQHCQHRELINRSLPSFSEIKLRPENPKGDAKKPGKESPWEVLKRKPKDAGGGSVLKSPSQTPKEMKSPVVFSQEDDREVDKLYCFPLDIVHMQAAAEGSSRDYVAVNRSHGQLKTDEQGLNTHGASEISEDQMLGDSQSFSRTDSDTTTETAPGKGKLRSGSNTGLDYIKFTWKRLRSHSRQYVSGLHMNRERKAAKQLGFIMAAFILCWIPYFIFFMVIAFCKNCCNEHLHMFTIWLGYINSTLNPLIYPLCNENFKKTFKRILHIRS

| Compound | Ki [1] | Ki [2] | Kb [3] | pKB Dog BN Male [4] | further results |
| --- | --- | --- | --- | --- | --- |
| CNCCc1ccc(O)c(NS(C)(=O)=O)c1 [SK&F 102652] |  |  |  |  | pKi H1 [1]: 4.3; pKi D2 [2]: 6.7 |
| COc1ccc(SC)c2c1C[C@@H]1[C@@H](C2)OCCN1C (relative stereo) [SDZ NVI-085, (±)-trans-4-Methyl-6-methoxy-9-thiomethoxy-3,4,4a, 5,10,10a-hexahydro-2H-naphtho[2,3-b][1,4]oxazine] | 5.01 µM | 3.16 µM |  |  |  |
| COc1ccccc1N1CCN(CCCNc2c(C)c(=O)n(C)c(=O)n2C)CC1 [Compound 5-MU] |  |  | 0.0398 µM | 8.7 |  |
| CS(=O)(=O)Nc1c(O)ccc2c1CCCC2C1=NCCN1 (racemic) [Compound A-61603, (±)-N-[5-(4,5-Dihydro-1H-imidazol-2-yl)-2-hydroxy-5,6,7,8-tetra-hydronaphthalen-1-yl]methanesulfonamide] | 50.1 µM | 10 µM |  |  |  |
| COc1cc2c(cc1OC)CN(c1cc(N)c3cc(OC)c(OC)cc3n1)CC2 [Abanoquil, 2-(6,7-Dimethoxy-3,4-dihydro-1H-isoquinolin-2-yl)-6,7-dimethoxyquinolin-4-ylamine hemifumarate hydrate] |  |  | 0.002 µM | 8.6 |  |
